Measured values: patent publication US11970479B2, “3-(1H-pyrazol-4-yl)pyridine allosteric modulators of the M4 muscarinic acetylcholine receptor” (Merck Sharp & Dohme LLC, priority 2018, dated 2024)

Target: T1, human M4 muscarinic acetylcholine receptor (Homo sapiens, UniProt P08173)
T1 construct: expressed in transfected cells
T1 sequence (P08173 1-479): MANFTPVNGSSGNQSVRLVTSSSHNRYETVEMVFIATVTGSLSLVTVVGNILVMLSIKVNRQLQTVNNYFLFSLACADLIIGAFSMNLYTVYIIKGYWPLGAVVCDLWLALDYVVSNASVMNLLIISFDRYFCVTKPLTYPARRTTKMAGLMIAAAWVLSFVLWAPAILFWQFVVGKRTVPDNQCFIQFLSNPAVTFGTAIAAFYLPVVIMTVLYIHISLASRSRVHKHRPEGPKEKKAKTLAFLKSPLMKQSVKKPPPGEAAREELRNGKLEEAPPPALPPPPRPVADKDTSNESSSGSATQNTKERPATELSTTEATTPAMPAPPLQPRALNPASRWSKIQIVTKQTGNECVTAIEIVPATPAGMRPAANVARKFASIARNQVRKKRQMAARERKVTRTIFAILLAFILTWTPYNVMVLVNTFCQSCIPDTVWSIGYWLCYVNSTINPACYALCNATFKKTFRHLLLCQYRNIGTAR
Assay: human FLIPR-based M4 PAM assay (CHO-K1 cells with human M4 receptor and Gαqi5, calcium dye fluorescence, EC20 acetylcholine)
Format: cell-based
Conditions: inflection point (IP) of the dose response curve, human M4 receptor/Gαqi5, acetylcholine at 20% of maximum response, read-out: M4PAM Hu IP
Description: (§1) In a typical experiment the M4 muscarinic acetylcholine receptor modulating activity of the compounds of the present invention was determined in accordance with the following experimental method. CHO-K1 cells stably transfected with human M4 receptor and chimeric G-protein Gαqi5 (Coward P, et al., Analytical Biochemistry, 270:242-248 (1999)) are thawed from liquid N2 storage, resuspended in growth medium, plated in black, clear bottom 384 well plates, and incubated 16-20 hours at 37° C., 5% CO2. On the day of assay, growth medium is removed, the cells are washed 2 times with wash buffer, and cells are incubated in dye loading buffer at 37° C., 5% CO2 for ˜1 hour. Following dye loading the cell plates are placed in a FLIPR Tetra instrument and while monitoring dye fluorescence (excitation […]), 10 uL of test substance at increasing concentrations is added, and fluorescence values are recorded for 4 min. Next, 10 uL of acetylcholine is added (final concentration calculated so as to achieve 20% of the maximum acetycholine response), and the fluorescence reading is continued for 3.5 min. In some cases, a third addition of acetylcholine (final concentration calculated to achieve 70% of the maximal acetylcholine response) is performed. The resulting dose response curves are fit to a 4 parameter logistic equation and the final result is determined as the inflection point (IP) of the curve
as §1, with “CHO-K1” for “In a typical experiment the M4 muscarinic acetylcholine receptor modulating activity of the compounds of the present invention was determined in accordance with the following experimental method. CHO-K1”, “Gαqi5” for “Gαqi5 (Coward P, et al., Analytical Biochemistry, 270:242-248 (1999))”, “performed.” for “performed. The resulting dose response curves are fit to a 4 parameter logistic equation and the final result is determined as the inflection point (IP) of the curve”

SMILES | EC50 [nM]
N#Cc1ccc(-c2cnn(CC3(C(F)(F)F)CC3)c2F)c(-c2ccc3cccnc3c2)n1 [Example 59, 5-(5-fluoro-1-{[1-(trifluoromethyl)cyclopropyl]methyl}-1H-pyrazol-4-yl)-6-quinolin-7-ylpyridine-2-carbonitrile] | 57
CC(C)C(=O)Cn1cc(-c2ccc(C#N)nc2-c2ccc3cccnc3c2)cn1 [Example 60, 5-[1-(3-methyl-2-oxobutyl)-1H-pyrazol-4-yl]-6-quinolin-7-ylpyridine-2-carbonitrile] | 181
CC(C)C(F)(F)Cn1cc(-c2ccc(C#N)nc2-c2ccc3cccnc3c2)cn1 [Example 61, 5-[1-(2,2-difluoro-3-methylbutyl)-1H-pyrazol-4-yl]-6-quinolin-7-ylpyridine-2-carbonitrile] | 26
CC(C)CCn1cc(-c2cccnc2-c2ccc3ccc(Cl)nc3c2)cn1 [Example 62, 2-chloro-7-{3-[1-(3-methylbutyl)-1H-pyrazol-4-yl]pyridin-2-yl}quinoline] | 84
CC(C)CCn1cc(-c2ccc(Cl)nc2-c2ccc3cccnc3c2)cn1 [Example 63, 7-{6-chloro-3-[1-(3-methylbutyl)-1H-pyrazol-4-yl]pyridin-2-yl}quinoline] | 26
CC(C)CCn1cc(-c2c(Cl)ccnc2-c2ccc3cccnc3c2)cn1 [Example 64, 7-{4-chloro-3-[1-(3-methylbutyl)-1H-pyrazol-4-yl]pyridin-2-yl}quinoline] | 295
CC(C)CCn1cc(-c2ccc(F)nc2-c2ccc3cccnc3c2)cn1 [Example 65, 7-{6-fluoro-3-[1-(3-methylbutyl)-1H-pyrazol-4-yl]pyridin-2-yl}quinoline] | 95
CC(C)CCn1cc(-c2ccc(C#N)nc2-c2ccc3cccnc3c2)cn1 [Example 66, 5-[1-(3-methylbutyl)-1H-pyrazol-4-yl]-6-quinolin-7-ylpyridine-2-carbonitrile] | 24
CC(C)CCn1cc(-c2ccc(C3=CCOCC3)nc2-c2ccc3cccnc3c2)cn1 [Example 67, 7-{6-(3,6-dihydro-2H-pyran-4-yl)-3-[1-(3-methylbutyl)-1H-pyrazol-4-yl]pyridin-2-yl}quinoline] | 121
CC(C)CCn1cc(-c2ccc(-c3ccnn3C)nc2-c2ccc3cccnc3c2)cn1 [Example 68, 7-{3-[1-(3-methylbutyl)-1H-pyrazol-4-yl]-6-(1-methyl-1H-pyrazol-5-yl)pyridin-2-yl}quinoline] | 118
CCCc1ccc(-c2cnn(CCC(C)C)c2)c(-c2ccc3cccnc3c2)n1 [Example 69, 7-{3-[1-(3-methylbutyl)-1H-pyrazol-4-yl]-6-propylpyridin-2-yl}quinoline] | 185
CC(C)CCn1cc(-c2ccc(C3CC3)nc2-c2ccc3cccnc3c2)cn1 [Example 70, 7-{6-(cyclopropyl)-3-[1-(3-methylbutyl)-1H-pyrazol-4-yl]pyridin-2-yl}quinoline] | 233
Cc1cnc(-c2ccc3cccnc3c2)c(-c2cnn(CCC(C)C)c2)c1 [Example 71, 7-{5-methyl-3-[1-(3-methylbutyl)-1H-pyrazol-4-yl]pyridin-2-yl}quinoline] | 222
C=Cc1ccc(-c2cnn(CCC(C)C)c2)c(-c2ccc3cccnc3c2)n1 [Example 72, 7-{6-ethenyl-3-[1-(3-methylbutyl)-1H-pyrazol-4-yl]pyridin-2-yl}quinoline] | 191
CCc1ccc(-c2cnn(CCC(C)C)c2)c(-c2ccc3cccnc3c2)n1 [Example 73, 7-{6-ethyl-3-[1-(3-methylbutyl)-1H-pyrazol-4-yl]pyridin-2-yl}quinoline] | 140
CC(C)CCn1cc(-c2ccc(Br)nc2-c2ccc3cccnc3c2)cn1 [Example 74, 7-{6-bromo-3-[1-(3-methylbutyl)-1H-pyrazol-4-yl]pyridin-2-yl}quinoline] | 39

SMILES | EC50 [nM]
COCCOc1ccc(-c2cnn(CCC(C)C)c2)c(-c2ccc3cccnc3c2)n1 [Example 75, 7-{6-(2-methoxyethoxy)-3-[1-(3-methylbutyl)-1H-pyrazol-4-yl]pyridin-2-yl}quinoline] | 123
CSc1cnc(-c2ccc3cccnc3c2)c(-c2cnn(CCC(C)C)c2)c1 [Example 76, 7-{3-[1-(3-methylbutyl)-1H-pyrazol-4-yl]-5-(methylsulfanyl)pyridin-2-yl}quinoline] | 63
COc1cc2ccc(-c3nc(C)ccc3-c3cnn(CCCC(F)(F)F)c3)cc2nn1 [Example 77, 3-methoxy-7-{6-methyl-3-[1-(4,4,4-trifluorobutyl)-1H-pyrazol-4-yl]pyridin-2-yl}cinnoline] | 271
COc1cc2ccc(-c3nc(C)ccc3-c3cnn(CC4CC(F)(F)C4)c3)cc2nn1 [Example 78, 7-(3-{1-[(3,3-difluorocyclobutyl)methyl]-1H-pyrazol-4-yl}-6-methylpyridin-2-yl)-3-methoxycinnoline] | 190
COc1cc2ccc(-c3nc(C)ccc3-c3cnn(CCC4CC(F)(F)C4)c3)cc2nn1 [Example 79, 7-(3-{1-[2-(3,3-difluorocyclobutyl)ethyl]-1H-pyrazol-4-yl}-6-methylpyridin-2-yl)-3-methoxycinnoline] | 166
COc1cc2ccc(-c3nc(C)ccc3-c3cnn(CCCC(F)=C(F)F)c3)cc2nn1 [Example 80, 3-methoxy-7-{6-methyl-3-[1-(4,5,5-trifluoropent-4-en-1-yl)-1H-pyrazol-4-yl]pyridin-2-yl}cinnoline] | 154
COc1cc2ccc(-c3nc(C)ccc3-c3cnn(CCC4CCOC4)c3)cc2nn1 (stereo not shown) [Example 81, 3-methoxy-7-(6-methyl-3-{1-[2-(tetrahydrofuran-3-yl)ethyl]-1H-pyrazol-4-yl}pyridin-2-yl)cinnoline] | 228
COc1cc2ccc(-c3nc(C)ccc3-c3cnn(CC4CCOC4)c3)cc2nn1 (stereo not shown) [Example 82, 3-methoxy-7-{6-methyl-3-[1-(tetrahydrofuran-3-ylmethyl)-1H-pyrazol-4-yl]pyridin-2-yl}cinnoline] | 180
COc1cc2ccc(-c3nc(C)ccc3-c3cnn(CC4CC5(CCC5)C4)c3)cc2nn1 [Example 83, 3-methoxy-7-{6-methyl-3-[1-(spiro[3.3]hept-2-ylmethyl)-1H-pyrazol-4-yl]pyridin-2-yl}cinnoline] | 99
COc1cc2ccc(-c3nc(C)ccc3-c3cnn(CC(C)(C)C#N)c3)cc2nn1 [Example 84, 3-{4-[2-(3-methoxycinnolin-7-yl)-6-methylpyridin-3-yl]-1H-pyrazol-1-yl}-2,2-dimethylpropanenitrile] | 198
COc1cc2ccc(-c3nc(C)ccc3-c3cnn(CCC(C)(C)C#N)c3)cc2nn1 [Example 85, 4-{4-[2-(3-methoxycinnolin-7-yl)-6-methylpyridin-3-yl]-1H-pyrazol-1-yl}-2,2-dimethylbutanenitrile] | 199
COc1cc2ccc(-c3nc(C)ccc3-c3cnn(CC4(F)CCCCC4)c3)cc2nn1 [Example 86, 7-(3-{1-[(1-fluorocyclohexyl)methyl]-1H-pyrazol-4-yl}-6-methylpyridin-2-yl)-3-methoxycinnoline] | 69
COc1cc2ccc(-c3nc(C)ccc3-c3cnn(CC4(C)CCOCC4)c3)cc2nn1 [Example 87, 3-methoxy-7-(6-methyl-3-{1-[(4-methyltetrahydro-2H-pyran-4-yl)methyl]-1H-pyrazol-4-yl}pyridin-2-yl)cinnoline] | 63
CC(C)(Cn1cc(-c2ccc(C#N)nc2-c2ccc3cccnc3c2)cn1)C(F)(F)F [Example 88, 6-quinolin-7-yl-5-[1-(3,3,3-trifluoro-2,2-dimethylpropyl)-1H-pyrazol-4-yl]pyridine-2-carbonitrile] | 44
CC(C)(C)CCn1cc(-c2ccc(C#N)nc2-c2ccc3cccnc3c2)cn1 [Example 89, 5-[1-(3,3-dimethylbutyl)-1H-pyrazol-4-yl]-6-quinolin-7-ylpyridine-2-carbonitrile] | 52
